{
  "source": "paper PMC9316000",
  "about": "“Preclinical Drug Pharmacokinetic, Tissue Distribution and Excretion Profiles of the Novel Limonin Derivate HY-071085 as an Anti-Inflammatory and Analgesic Candidate in Rats and Beagle Dogs” (Pharmaceuticals, 2022)",
  "origin": "cited, not measured here",
  "key": {"[1]": {"set-up": "method as in earlier work", "details": "Temp 25℃; cited from earlier work"}, "[2]": {"set-up": "method as in earlier work", "details": "Temp 25℃; cited from earlier work", "remark": "listed apart in the source"}, "[3]": {"set-up": "method as in PMID 16435568", "details": "cited from earlier work"}, "[4]": {"set-up": "method as in earlier work", "details": "Temp 25℃, pH 7.0; cited from earlier work"}},
  "note": "Read-outs that look alike come from different tables or passages of the source.",
  "data": [
    {"smiles": "CC1(C)O[C@H]2CC(=O)OC[C@]23[C@H]2CC[C@@]4(C)[C@H](c5ccoc5)OC(=O)[C@H]5O[C@]54[C@]2(C)C(=O)C[C@@H]13", "note": "[Limonin]", "values": [
      {"measurement": "logP", "setting": "[1]", "result": 0.474},
      {"measurement": "Intrinsic solubility", "setting": "[2]", "result": 220, "unit": "µg/mL"},
      {"measurement": "exposure of female rats relative to male rats", "setting": "[3]; intravenous administration", "result": "three-fold higher"},
      {"measurement": "exposure of female rats relative to male rats", "setting": "[3]; oral administration", "result": 50, "unit": "fold"},
      {"measurement": "LogD", "setting": "[4]", "result": 0.47}
    ]}
  ]
}
